From ChEMBL document CHEMBL1148139, “Antiangiogenic activity of synthetic dihydrobenzofuran lignans” (J Nat Prod, 2002)
Activity calls are given as the source filed them. The calls are words filed in the database; no cut-off is given here.

Tests used:
Gallus gallus [1] = species: Gallus gallus; test: Antiangiogenic activity in fertilized chicken eggs at 5 ug/pellet by CAM assay; format: functional; conditions: Egg
[2] = Toxicity to fertilized chicken eggs assessed as membrane irritating activity at 20 ug/pellet; design: species or system Gallus gallus; conditions: in vivo, other
Gallus gallus [3] = species: Gallus gallus; test: Antiangiogenic activity in fertilized chicken eggs at 20 ug/pellet by CAM assay; format: functional; conditions: Egg

COC(=O)/C=C/c1cc(O)c2c(c1)[C@@H](C(=O)OC)[C@H](c1ccc(O)c(O)c1)O2
Activity (Gallus gallus [1]): Active
Activity [2]: 50%
Activity (Gallus gallus [3]): Active
